The target in experiment [1] is T1, NMB receptors on C-6 cells (Rattus norvegicus, UniProt P24053).
T1 construct: endogenous in cells; host or cells: rat glioblastoma C-6 cells
T1 sequence (P24053 1-390): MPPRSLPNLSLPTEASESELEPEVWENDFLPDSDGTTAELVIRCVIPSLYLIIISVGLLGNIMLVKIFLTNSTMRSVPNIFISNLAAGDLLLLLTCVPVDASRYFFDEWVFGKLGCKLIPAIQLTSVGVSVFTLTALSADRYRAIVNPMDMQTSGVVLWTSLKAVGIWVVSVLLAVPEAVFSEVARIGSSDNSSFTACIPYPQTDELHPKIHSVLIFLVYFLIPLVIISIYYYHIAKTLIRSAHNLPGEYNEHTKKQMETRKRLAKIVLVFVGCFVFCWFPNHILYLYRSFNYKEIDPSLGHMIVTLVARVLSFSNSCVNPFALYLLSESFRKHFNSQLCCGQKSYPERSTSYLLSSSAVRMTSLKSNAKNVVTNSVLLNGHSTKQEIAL
Description: Binding of 125I-[D-Tyr0]NMB to C-6 glioblastoma cells. Particulars: Ki by Cheng method, read-out: Ki 125I-NMB Binding, NMB Receptor, C-6 Cells. A digest of the protocol: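 Disaggregated rat C-6 glioblastoma cells (15×10^6/ml) or NMB-R-transfected cells (2×10^6/ml) were incubated with 75 pM 125I-[D-Tyr0]NMB for 60 min at 22° C in HEPES binding buffer with 0.2% BSA, pH 7.4. Values are saturable binding: total minus binding in the presence of excess unlabelled NMB.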

Experiment [2] addresses T2, rat NMB receptor (Rattus norvegicus, UniProt P24053).
T2 construct: a full length NMB-preferring bombesin receptor clone generated from rat esophagus; expressed in transfected cells
T2 sequence (P24053 1-390): T1 sequence (P24053 1-390)
Description: Binding of 125I-[D-Tyr0]NMB to NMB-R transfected BALB 3T3 cells. To be noted: for fold decrease in NMB receptor affinity compared with cyclo SS-octa (#1): structure-function comparison from Table 1.

Experiment [3] deals with T3, somatostatin receptors (Rattus norvegicus, UniProt P30680).
T3 construct: endogenous in cells; host or cells: rat AR 42J pancreatic acinar tumor cell membranes
As to the kind of experiment: Somatostatin membrane receptor assay, 125I-[Tyr11]SS-14, AR 42J cell membranes. The format is binding. To be noted: Cheng method; table prints no unit (b360 gives nM for a Table 4 value); read-out: affinity, 125I-[Tyr11]SS-14, AR 42J Cell Membranes (somatostatin receptors).

Experiment [4] has as its target GRP receptor (Rattus norvegicus, UniProt P52500). Description: Amylase release from rat pancreatic acini (alone or Bn-stimulated). The format is cell-based. To be noted: for Amylase Release, analog Alone (10 μM): analog 10 μM alone, control 4 ± 1; for Amylase Release, analog Plus Bn (0.3 nM): analog 10 μM plus Bn 0.3 nM, Bn without analog 15 ± 1; for IC50: read-out: IC50 Amylase Release, GRP Receptor, Rat Pancreatic Acini. Further details: from tissue; host or cells: dispersed pancreatic acini. A digest of the protocol: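 Rat pancreatic acini incubated 30 min at 37° C without additives or with somatostatin octapeptide analog, Bn, NMB or combinations. Amylase release expressed as percent of total cellular amylase released during incubation; for inhibition, somatostatin analog (10 μM) tested on 0.3 nM Bn-stimulated release.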

The target in experiment [5] is T4, NMB receptor (Rattus norvegicus, UniProt P24053).
T4 sequence (P24053 1-390): T1 sequence (P24053 1-390)
As to the kind of experiment: [3H]inositol phosphates in NMB-R transfected cells (alone or NMB-stimulated). Further details: a full length NMB-preferring bombesin receptor clone generated from rat esophagus; expressed in transfected cells. In kind it is cell-based. Particulars: NMB-R transfected cells; for IC50 / effect at 10 μM on NMB-stimulated increase in [3H]IP: 3 nM NMB; for [3H]IP, analog Alone (10 μM): analog 10 μM alone, control 13 ± 3; for [3H]IP, analog Plus NMB (3 nM): analog 10 μM plus NMB 3 nM, NMB without analog 186 ± 58. A digest of the protocol:
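BALB 3T3 cells stably expressing rat NMB receptor, labelled 48 h at 37 °C with 100 μCi/ml myo-[3H]inositol, preincubated 15 min in buffer with 10 mM LiCl, then exposed 60 min at 37 °C to agonists or to 3 nM NMB plus antagonists. Total [3H]inositol phosphates isolated by anion-exchange chromatography.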

The mark [6] stands for this setting: NMB-R transfected BALB 3T3 cells, Ki by Cheng method, read-out: Ki 125I-NMB Binding, NMB Receptor, Transfected Cells.
Setting [7] is: read-out: IC50 NMB-stimulated [3H]IP, NMB Receptor, Transfected Cells.

Usually IC50 stands for the concentration that gives 50% inhibition.

Each structure is given as a SMILES string. Read-outs that look alike come from different tables or passages of the source. Where a SMILES comes first, the peptide text is derived from it. Bridges are numbered along the chain shown (N, C = ends). [ ]: non-standard residue; d: D form. 2Nal = N[C@@H](Cc1ccc2ccccc2c1)C(=O)O; d2Nal = N[C@H](Cc1ccc2ccccc2c1)C(=O)O

Chain of GRP receptor (P52500 whole entry): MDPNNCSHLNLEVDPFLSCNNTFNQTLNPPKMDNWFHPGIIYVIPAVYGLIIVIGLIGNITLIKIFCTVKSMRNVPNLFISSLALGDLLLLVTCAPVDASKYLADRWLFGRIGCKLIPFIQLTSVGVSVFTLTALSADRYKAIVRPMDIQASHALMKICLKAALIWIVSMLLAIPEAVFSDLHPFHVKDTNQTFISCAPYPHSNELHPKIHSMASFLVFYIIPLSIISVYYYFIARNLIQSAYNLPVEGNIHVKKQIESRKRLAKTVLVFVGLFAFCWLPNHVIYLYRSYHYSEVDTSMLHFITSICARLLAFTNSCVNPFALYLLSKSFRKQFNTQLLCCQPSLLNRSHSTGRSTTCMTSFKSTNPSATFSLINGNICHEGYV
T3 sequence (P30680 whole entry): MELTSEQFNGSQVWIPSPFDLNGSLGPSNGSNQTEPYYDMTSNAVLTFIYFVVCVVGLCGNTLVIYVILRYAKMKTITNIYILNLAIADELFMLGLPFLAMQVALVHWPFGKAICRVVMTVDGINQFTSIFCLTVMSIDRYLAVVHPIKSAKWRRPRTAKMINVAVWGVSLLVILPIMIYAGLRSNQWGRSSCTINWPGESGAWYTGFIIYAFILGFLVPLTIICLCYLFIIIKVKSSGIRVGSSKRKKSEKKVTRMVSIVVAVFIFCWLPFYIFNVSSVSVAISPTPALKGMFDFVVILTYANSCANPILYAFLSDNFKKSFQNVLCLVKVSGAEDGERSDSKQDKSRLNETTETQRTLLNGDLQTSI

`CC(C)[C@@H]1NC(=O)[C@H](CCCCN)NC(=O)[C@@H](Cc2c[nH]c3ccccc23)NC(=O)[C@H](Cc2ccc(O)cc2)NC(=O)[C@@H](NC(=O)[C@H](N)Cc2ccc3ccccc3c2)CSSC[C@@H](C(=O)N[C@H](Cc2ccc3ccccc3c2)C(N)=O)NC1=O` [Analog #8, H2 -D-Nal-Cys-Tyr-D-Trp-Lys-Val-Cys-D-Nal-NH2] (H-[d2Nal]CY[dW]KVC[d2Nal]-NH2; disulfide 2-7): the Ki is 670 ± 73 nM in experiment [1]; 1920 ± 201 nM in experiment [2] (setting [6]); 1400 to 2300 nM in experiment [2] (NMB-R transfected cells, value or range given for a group, read-out: K1, 125I-NMB binding to NMB-R transfected cells (text)); 3.9 ± 0.1 nM in experiment [3]. Also, the “fold by which cyclo SS-octa is more potent than the analog, 125I-NMB binding” value in experiment [2] (NMB-R transfected cells) is recorded as 9 fold. Also, the “fold decrease in NMB receptor affinity compared with cyclo SS-octa (#1)” value (“fold decrease in NMB receptor affinity” below) in experiment [2] was found to be 6 fold. Moreover, the “Amylase Release, analog Alone (10 μM)” value in experiment [4] came to 2 ± 1 % total. Besides, the “Amylase Release, analog Plus Bn (0.3 nM)” value in experiment [4] is 14 ± 1 % total. Moreover, the IC50 in experiment [4] is more than 10 µM; in experiment [5] (setting [7]), 5.19 ± 0.987 µM. Further, the “[3H]IP, analog Alone (10 μM)” value in experiment [5] is reported as 10 ± 3 dym × 10^3. Besides, the “[3H]IP, analog Plus NMB (3 nM)” value in experiment [5] is on record as 67 ± 13 dym × 10^3.

On to `CC(C)[C@@H]1NC(=O)[C@H](CCCCN)NC(=O)[C@@H](Cc2c[nH]c3ccccc23)NC(=O)[C@H](Cc2ccc(O)cc2)NC(=O)[C@@H](NC(=O)[C@@H](N)Cc2ccc3ccccc3c2)CSSC[C@@H](C(=O)N[C@H](Cc2ccc3ccccc3c2)C(N)=O)NC1=O` [Analog #9, H2 -Nal-Cys-Tyr-D-Trp-Lys-Val-Cys-D-Nal-NH2] (H-[2Nal]CY[dW]KVC[d2Nal]-NH2; disulfide 2-7), for which the Ki in experiment [1] amounted to 1160 ± 214 nM. For the same compound, the Ki in experiment [2] (setting [6]) came out at 1160 ± 229 nM. For the same compound, the Ki in experiment [3] was found to be 2.8 ± 0.7 nM. For the same compound, in experiment [4], the “Amylase Release, analog Alone (10 μM)” value turned out to be 3 ± 1 % total; the “Amylase Release, analog Plus Bn (0.3 nM)” value stood at 16 ± 1 % total; the half-maximal inhibitory concentration (IC50) was more than 10 µM. Moreover, in experiment [5] (setting [7]), the IC50 worked out at 4.41 ± 0.451 µM. Moreover, in experiment [5], the “[3H]IP, analog Alone (10 μM)” value is given as 8 ± 2 dym × 10^3 and the “[3H]IP, analog Plus NMB (3 nM)” value is recorded as 28 ± 6 dym × 10^3.

In the case of `CC(C)[C@@H]1NC(=O)[C@H](CCCCN)NC(=O)[C@@H](Cc2c[nH]c3ccccc23)NC(=O)[C@H](Cc2ccc(O)cc2)NC(=O)[C@H](NC(=O)[C@H](N)Cc2ccc3ccccc3c2)CSSC[C@@H](C(=O)N[C@@H](Cc2ccc3ccccc3c2)C(N)=O)NC1=O` [Analog #10, H2 -D-Nal-D-Cys-Tyr-D-Trp-Lys-Val-Cys-Nal-NH2] (H-[d2Nal][dC]Y[dW]KVC[2Nal]-NH2; disulfide 2-7), the Ki in experiment [1] came to 1150 ± 518 nM. Besides, the Ki in experiment [2] (setting [6]) worked out at 960 ± 109 nM. For the same compound, in experiment [2], the “fold decrease in NMB receptor affinity” value is given as 5 fold. For the same compound, the Ki in experiment [3] amounted to 91 ± 23 nM. Further, in experiment [4], the “Amylase Release, analog Alone (10 μM)” value was found to be 3 ± 1 % total; the “Amylase Release, analog Plus Bn (0.3 nM)” value is recorded as 16 ± 1 % total; the half-inhibitory concentration (IC50) was more than 10 µM. Moreover, the IC50 in experiment [5] (setting [7]) came out at 3.99 ± 0.781 µM. Besides, in experiment [5], the “effect at 10 μM on NMB-stimulated increase in [3H]IP” value was “completely inhibited”; the “[3H]IP, analog Alone (10 μM)” value came to 10 ± 3 dym × 10^3; the “[3H]IP, analog Plus NMB (3 nM)” value was 4 ± 2 dym × 10^3.

As to `CC(C)[C@@H]1NC(=O)[C@H](CCCCN)NC(=O)[C@@H](Cc2c[nH]c3ccccc23)NC(=O)[C@H](Cc2ccc(O)cc2)NC(=O)[C@@H](NC(=O)[C@H](N)Cc2ccc3ccccc3c2)CSSC[C@H](C(=O)N[C@@H](Cc2ccc3ccccc3c2)C(N)=O)NC1=O` [Analog #11, H2 -D-Nal-Cys-Tyr-D-Trp-Lys-Val-D-Cys-Nal-NH2] (H-[d2Nal]CY[dW]KV[dC][2Nal]-NH2; disulfide 2-7), the Ki in experiment [1] stood at 1740 ± 345 nM. For the same compound, the Ki in experiment [2] (setting [6]) worked out at 1080 ± 199 nM. Also, the “fold decrease in NMB receptor affinity” value in experiment [2] is given as 5 fold. For the same compound, in experiment [3], the Ki was 48 ± 3 nM. Moreover, in experiment [4], the “Amylase Release, analog Alone (10 μM)” value stood at 2 ± 1 % total; the “Amylase Release, analog Plus Bn (0.3 nM)” value was found to be 14 ± 1 % total; the concentration for half-maximal inhibition (IC50) is more than 10 µM. Moreover, the IC50 in experiment [5] (setting [7]) amounted to 1.43 ± 0.119 µM. For the same compound, the IC50 in experiment [5] (read-out: IC50 NMB-stimulated [3H]IP, Transfected Cells (values in μM)) lay in the range of 1.2 to 1.8 µM. Further, in experiment [5], the “effect at 10 μM on NMB-stimulated increase in [3H]IP” value is “completely inhibited”; the “[3H]IP, analog Alone (10 μM)” value is recorded as 10 ± 1 dym × 10^3; the “[3H]IP, analog Plus NMB (3 nM)” value was 7 ± 4 dym × 10^3.

The record behind these values is patent US5462926A (Biomeasure, Inc., priority 1993, dated 1995).
